The conditions of series [1]: Crystal; DTA.
The nature of series [2]: Molar enthalpy of transition or fusion. The settings on record: Crystal; DSC.

Molecules are shown by their SMILES. Numbers after ± are expanded uncertainties.

With `CCCOC(=O)c1ccc(O)cc1` [propyl 4-hydroxybenzoate], the Normal melting temperature in series [1] amounted to 96.40 ± 0.5 °C. For the same molecule, the “Molar enthalpy of transition or fusion” value in series [2] worked out at 6.34 ± 0.182 kcal/mol.
On the same counts, the results for `CCOC(=O)c1ccc(O)cc1` [ethyl 4-hydroxybenzoate] are 115.50 ± 0.5 °C and 6.16 ± 0.179 kcal/mol.

Source of the values: the NIST ThermoML archive (doi:10.1016/j.fluid.2014.05.036).
